Test results published in BigSolDB 2.1.

solubility (mole fraction) (in ethanol, 288.15 K)	solubility (mole fraction) (in ethanol, 293.15 K)	solubility (mole fraction) (in ethanol, 298.15 K)	solubility (mole fraction) (in ethanol, 303.15 K)	solubility (mole fraction) (in ethanol, 308.15 K)	solubility (mole fraction) (in water, 288.15 K)	solubility (mole fraction) (in water, 293.15 K)	solubility (mole fraction) (in water, 298.15 K)	solubility (mole fraction) (in water, 303.15 K)	solubility (mole fraction) (in water, 308.15 K)	SMILES
1.6e-05	2e-05	2.8e-05	3.1e-05	3.9e-05	0.00379	0.00418	0.0046	0.00515	0.0057	N[C@@H](Cc1cnc[nH]1)C(=O)O
0.000142	0.000178	0.000209	0.000246	0.000284	0.00116	0.00119	0.00122	0.00125	0.00128	N[C@@H](Cc1c[nH]c2ccccc12)C(=O)O
